Assay results published in ChEMBL document CHEMBL1201862, “PubChem BioAssay data set” (2004).
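Tested at 5 concentrations; 48 h exposure; 96-well plates; endpoints linearly interpolated, else capped at highest concentration. Abbreviation: GI50, concentration required for 50% inhibition of growth.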 The source made the active and inactive calls. Rule as the data show it: active = GI50 up to about 1.1 µM and inactive = higher.

Tests used:
Assay in all cases: inhibition of tumour cell growth, NCI panel, 48 h
XF498 = test system: XF498
DLD-1 = test system: DLD-1
NCI-H522 = test system: NCI-H522
SF-539 = test system: SF-539
KM12 = test system: KM12
EKVX = test system: EKVX
DMS-114 = test system: DMS-114
CCRF-CEM = test system: CCRF-CEM
U-251 = test system: U-251
K562 = test system: K562
A549 = test system: A549
COLO 205 = test system: COLO 205
OVCAR-3 = test system: OVCAR-3
M14 = test system: M14
DMS-273 = test system: DMS-273
SK-MEL-2 = test system: SK-MEL-2
NCI-H226 = test system: NCI-H226
SW-620 = test system: SW-620
OVCAR-8 = test system: OVCAR-8
RXF 393 = test system: RXF 393
SK-MEL-5 = test system: SK-MEL-5
SF-268 = test system: SF-268
HCT-15 = test system: HCT-15
LOX IMVI = test system: LOX IMVI
HCC 2998 = test system: HCC 2998
HOP-62 = test system: HOP-62
LXFL 529 = test system: LXFL 529
ACHN = test system: ACHN
SK-OV-3 = test system: SK-OV-3
M19-MEL = test system: M19-MEL
HL-60 = test system: HL-60
OVCAR-4 = test system: OVCAR-4
HOP-92 = test system: HOP-92
UO-31 = test system: UO-31
SN12C = test system: SN12C
UACC-257 = test system: UACC-257
SR = test system: SR
786-0 = test system: 786-0
CAKI-1 = test system: CAKI-1
OVCAR-5 = test system: OVCAR-5
SNB-75 = test system: SNB-75
TK-10 = test system: TK-10
HT-29 = test system: HT-29
KM-20L2 = test system: KM-20L2
IGROV-1 = test system: IGROV-1
SF-295 = test system: SF-295
UACC-62 = test system: UACC-62
Malme-3M = test system: Malme-3M
NCI-H23 = test system: NCI-H23
HCT-116 = test system: HCT-116
SNB-19 = test system: SNB-19
A498 = test system: A498
NCI-H460 = test system: NCI-H460
MOLT-4 = test system: MOLT-4
RPMI-8226 = test system: RPMI-8226
HOP-18 = test system: HOP-18
SK-MEL-28 = test system: SK-MEL-28
SNB-78 = test system: SNB-78

Compound: O=C1C(=O)N(c2ccc(Cl)cc2Cl)C(=O)C(=O)C1c1nc2ccccc2s1
- GI50 (XF498): > 55 µM (inactive)
- GI50 (DLD-1): > 51.8 µM (inactive)
- GI50 (NCI-H522): 24.5 µM (inactive)
- GI50 (SF-539): > 100 µM (inactive)
- GI50 (KM12): > 100 µM (inactive)
- GI50 (EKVX): > 79.8 µM (inactive)
- GI50 (DMS-114): > 72.4 µM (inactive)
- GI50 (CCRF-CEM): 25 µM (inactive)
- GI50 (U-251): > 43.9 µM (inactive)
- GI50 (K562): 31 µM (inactive)
- GI50 (A549): > 100 µM (inactive)
- GI50 (COLO 205): > 100 µM (inactive)
- GI50 (OVCAR-3): > 100 µM (inactive)
- GI50 (M14): > 100 µM (inactive)
- GI50 (DMS-273): > 100 µM (inactive)
- GI50 (SK-MEL-2): > 100 µM (inactive)
- GI50 (NCI-H226): > 74.8 µM (inactive)
- GI50 (SW-620): > 78.3 µM (inactive)
- GI50 (OVCAR-8): > 100 µM (inactive)
- GI50 (RXF 393): > 100 µM (inactive)
- GI50 (SK-MEL-5): 65.2 µM (inactive)
- GI50 (SF-268): > 56.4 µM (inactive)
- GI50 (HCT-15): > 89.1 µM
- GI50 (LOX IMVI): > 100 µM (inactive)
- GI50 (HCC 2998): > 100 µM (inactive)
- GI50 (HOP-62): > 100 µM (inactive)
- GI50 (LXFL 529): 50.6 µM (inactive)
- GI50 (ACHN): > 100 µM (inactive)
- GI50 (SK-OV-3): > 100 µM (inactive)
- GI50 (M19-MEL): > 100 µM (inactive)
- GI50 (HL-60): 23.7 µM (inactive)
- GI50 (OVCAR-4): > 78.5 µM (inactive)
- GI50 (HOP-92): 80.4 µM (inactive)
- GI50 (UO-31): > 77.4 µM (inactive)
- GI50 (SN12C): > 100 µM (inactive)
- GI50 (UACC-257): > 100 µM (inactive)
- GI50 (SR): 28.2 µM (inactive)
- GI50 (786-0): > 100 µM (inactive)
- GI50 (CAKI-1): 64.1 µM (inactive)
- GI50 (OVCAR-5): > 100 µM (inactive)
- GI50 (SNB-75): 20.9 µM (inactive)
- GI50 (TK-10): > 100 µM (inactive)
- GI50 (HT-29): > 82.2 µM (inactive)
- GI50 (KM-20L2): > 100 µM (inactive)
- GI50 (IGROV-1): > 100 µM (inactive)
- GI50 (SF-295): > 100 µM (inactive)
- GI50 (UACC-62): 78.3 µM (inactive)
- GI50 (Malme-3M): > 100 µM (inactive)
- GI50 (NCI-H23): > 64 µM (inactive)
- GI50 (HCT-116): > 71.6 µM (inactive)
- GI50 (SNB-19): > 100 µM (inactive)
- GI50 (A498): > 100 µM (inactive)
- GI50 (NCI-H460): > 100 µM (inactive)
- GI50 (MOLT-4): 23.3 µM (inactive)
- GI50 (RPMI-8226): 48 µM (inactive)
- GI50 (HOP-18): > 100 µM (inactive)
- GI50 (SK-MEL-28): > 87.9 µM (inactive)

Compound: CCOc1ccccc1NC(=O)C(=O)CC(=O)C1=C(C)Nc2ccccc2S1
- GI50 (XF498): > 100 µM (inactive)
- GI50 (DLD-1): > 100 µM (inactive)
- GI50 (NCI-H522): > 100 µM (inactive)
- GI50 (SF-539): > 100 µM (inactive)
- GI50 (KM12): > 100 µM (inactive)
- GI50 (EKVX): > 100 µM (inactive)
- GI50 (CCRF-CEM): > 100 µM (inactive)
- GI50 (U-251): > 100 µM (inactive)
- GI50 (K562): > 30.5 µM (inactive)
- GI50 (A549): > 100 µM (inactive)
- GI50 (COLO 205): > 100 µM (inactive)
- GI50 (OVCAR-3): > 100 µM (inactive)
- GI50 (M14): > 100 µM (inactive)
- GI50 (DMS-273): > 100 µM (inactive)
- GI50 (SK-MEL-2): > 100 µM (inactive)
- GI50 (NCI-H226): > 100 µM (inactive)
- GI50 (SW-620): > 100 µM (inactive)
- GI50 (OVCAR-8): > 100 µM (inactive)
- GI50 (RXF 393): > 100 µM (inactive)
- GI50 (SK-MEL-5): > 100 µM (inactive)
- GI50 (SF-268): > 100 µM (inactive)
- GI50 (HCT-15): > 100 µM
- GI50 (LOX IMVI): > 100 µM (inactive)
- GI50 (SNB-78): > 100 µM (inactive)
- GI50 (HCC 2998): > 100 µM (inactive)
- GI50 (HOP-62): > 100 µM (inactive)
- GI50 (LXFL 529): > 100 µM (inactive)
- GI50 (ACHN): > 100 µM (inactive)
- GI50 (SK-OV-3): > 100 µM (inactive)
- GI50 (M19-MEL): > 100 µM (inactive)
- GI50 (HL-60): > 21.1 µM (inactive)
- GI50 (OVCAR-4): > 100 µM (inactive)
- GI50 (HOP-92): > 100 µM (inactive)
- GI50 (UO-31): > 93.3 µM (inactive)
- GI50 (SN12C): > 100 µM (inactive)
- GI50 (UACC-257): > 100 µM (inactive)
- GI50 (786-0): > 100 µM (inactive)
- GI50 (CAKI-1): > 100 µM (inactive)
- GI50 (OVCAR-5): > 100 µM (inactive)
- GI50 (SNB-75): > 100 µM (inactive)
- GI50 (TK-10): > 100 µM (inactive)
- GI50 (HT-29): > 100 µM (inactive)
- GI50 (KM-20L2): > 100 µM (inactive)
- GI50 (IGROV-1): > 100 µM (inactive)
- GI50 (SF-295): > 100 µM (inactive)
- GI50 (UACC-62): > 100 µM (inactive)
- GI50 (Malme-3M): > 100 µM (inactive)
- GI50 (NCI-H23): > 100 µM (inactive)
- GI50 (HCT-116): > 100 µM (inactive)
- GI50 (SNB-19): > 100 µM (inactive)
- GI50 (A498): > 100 µM (inactive)
- GI50 (NCI-H460): > 100 µM (inactive)
- GI50 (MOLT-4): > 49.7 µM (inactive)
- GI50 (RPMI-8226): > 100 µM (inactive)
- GI50 (SK-MEL-28): > 100 µM (inactive)

Compound: O=c1c([Se]c2coc3ccccc3c2=O)coc2ccccc12
- GI50 (XF498): 16.8 µM (inactive)
- GI50 (DLD-1): 18.2 µM (inactive)
- GI50 (NCI-H522): 18.4 µM (inactive)
- GI50 (SF-539): 11.9 µM (inactive)
- GI50 (KM12): 11.3 µM (inactive)
- GI50 (EKVX): 18.7 µM (inactive)
- GI50 (DMS-114): 17.5 µM (inactive)
- GI50 (CCRF-CEM): 18.1 µM (inactive)
- GI50 (U-251): 7.13 µM (inactive)
- GI50 (K562): 34.1 µM (inactive)
- GI50 (A549): 6.3 µM (inactive)
- GI50 (COLO 205): 16.2 µM (inactive)
- GI50 (OVCAR-3): 18 µM (inactive)
- GI50 (M14): 14.9 µM (inactive)
- GI50 (DMS-273): 11 µM (inactive)
- GI50 (SK-MEL-2): 18.2 µM (inactive)
- GI50 (NCI-H226): 14.1 µM (inactive)
- GI50 (SW-620): 19 µM (inactive)
- GI50 (OVCAR-8): 12.7 µM (inactive)
- GI50 (RXF 393): 15.9 µM (inactive)
- GI50 (SK-MEL-5): 16.3 µM (inactive)
- GI50 (SF-268): 19.5 µM (inactive)
- GI50 (HCT-15): 16.9 µM
- GI50 (LOX IMVI): 16 µM (inactive)
- GI50 (SNB-78): 19.9 µM (inactive)
- GI50 (HCC 2998): 17.7 µM (inactive)
- GI50 (HOP-62): 4.89 µM (inactive)
- GI50 (LXFL 529): 15.4 µM (inactive)
- GI50 (ACHN): 18.2 µM (inactive)
- GI50 (SK-OV-3): 16.2 µM (inactive)
- GI50 (M19-MEL): 15.3 µM (inactive)
- GI50 (HL-60): 23 µM (inactive)
- GI50 (OVCAR-4): 16.9 µM (inactive)
- GI50 (HOP-92): 17.6 µM (inactive)
- GI50 (UO-31): 13.5 µM (inactive)
- GI50 (SN12C): 15 µM (inactive)
- GI50 (UACC-257): 17.4 µM (inactive)
- GI50 (SR): 4.72 µM (inactive)
- GI50 (786-0): 18.5 µM (inactive)
- GI50 (CAKI-1): 20 µM (inactive)
- GI50 (OVCAR-5): 16.2 µM (inactive)
- GI50 (SNB-75): 15.6 µM (inactive)
- GI50 (TK-10): 17.7 µM (inactive)
- GI50 (HT-29): 17.1 µM (inactive)
- GI50 (KM-20L2): 12 µM (inactive)
- GI50 (IGROV-1): 10.5 µM (inactive)
- GI50 (SF-295): 2.76 µM (inactive)
- GI50 (UACC-62): 17.1 µM (inactive)
- GI50 (Malme-3M): 17.8 µM (inactive)
- GI50 (NCI-H23): 15.6 µM (inactive)
- GI50 (HCT-116): 3.8 µM (inactive)
- GI50 (SNB-19): 14 µM (inactive)
- GI50 (A498): 19.1 µM (inactive)
- GI50 (NCI-H460): 3.65 µM (inactive)
- GI50 (MOLT-4): 9.18 µM (inactive)
- GI50 (RPMI-8226): 22.8 µM (inactive)
- GI50 (HOP-18): 15.7 µM (inactive)
- GI50 (SK-MEL-28): 17.1 µM (inactive)
